Data on one compound can be found in article PMC7271668 (Frontiers in Pharmacology, 2020).

For data set [1] the following is noted: after oral administration of enalapril; ref Ulm et al., 1982; MacFadyen et al., 1993; cited from earlier work.
The target in a further data set is T1, human OAT1 (Homo sapiens, UniProt Q4U2R8).
T1 construct: expressed in transfected cells; gift of Prof; Dafang Zhong, Shanghai Institute of Materia Medica
T1 sequence (Q4U2R8 1-563): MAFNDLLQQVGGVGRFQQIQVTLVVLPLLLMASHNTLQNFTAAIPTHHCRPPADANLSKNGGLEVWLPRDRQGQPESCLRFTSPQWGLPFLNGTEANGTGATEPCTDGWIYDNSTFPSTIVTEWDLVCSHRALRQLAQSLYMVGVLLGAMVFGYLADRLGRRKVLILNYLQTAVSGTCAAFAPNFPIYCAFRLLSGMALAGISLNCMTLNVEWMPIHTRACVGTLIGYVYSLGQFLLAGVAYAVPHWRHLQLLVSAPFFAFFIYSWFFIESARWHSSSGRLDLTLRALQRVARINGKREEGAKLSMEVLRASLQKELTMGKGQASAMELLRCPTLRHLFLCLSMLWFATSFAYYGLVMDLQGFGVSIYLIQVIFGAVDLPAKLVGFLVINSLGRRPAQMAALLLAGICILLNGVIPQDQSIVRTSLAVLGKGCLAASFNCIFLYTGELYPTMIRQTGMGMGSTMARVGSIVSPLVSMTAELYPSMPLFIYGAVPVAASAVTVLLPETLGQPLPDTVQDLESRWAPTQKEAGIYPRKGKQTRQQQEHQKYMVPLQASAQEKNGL
Put plainly: Enalaprilat uptake kinetics in HEK293 cells overexpressing human OAT1. To be noted: OAT1-transfected HEK293, net uptake (mock subtracted), enalaprilat 0-500 μM, 5 min incubation. The format is in vitro ADME. As for the experimental part: (§1) Human embryonic kidney 293 (HEK293) cells stably overexpressing human OAT1, OAT3, organic cation transporter 2 (OCT2), OATP1B1, OATP1B3 or OATP2B1 as well as empty vectors were generously provided by Professor Dafang Zhong, Shanghai Institute of Materia Medica, Chinese Academy of Sciences (Shanghai, China). Respective transport activities had been validated using specific probe substrates ([Zhong et al., 2014]). All cells were grown in DMEM supplemented with 10% FBS, at 37°C with 5% CO2 and 95% humidity.
(§2) Cells were seeded in 24-well plates at a density of 200,000 cells per well and cultured in high glucose DMEM for 48 h. On the third day and prior to the start of the uptake experiment, cells were washed thrice with pre-warmed HBSS and then incubated with HBSS for 30 min at 37°C. […] Incubations were terminated 5 min after the addition of substrate by washing with ice-cold HBSS. Cells were immediately lysed with 200 μl ultrapure water by repeated freezing and thawing up to three times. Intracellular drug concentrations were determined using a liquid chromatography - tandem mass spectrometry (LC-MS/MS) method. Cellular protein levels were estimated using the Bicinchoninine acid assay per manufacturer’s instruction (Takara, Japan).
(§3) Kinetic parameters of transporter-mediated uptake were estimated by nonlinear regression analysis using GraphPad Prism 5.01 (La Jolla, CA, USA). […]

For a further data set, the target named is T2, human OAT3 (Homo sapiens, UniProt Q8TCC7).
T2 sequence (Q8TCC7 1-542): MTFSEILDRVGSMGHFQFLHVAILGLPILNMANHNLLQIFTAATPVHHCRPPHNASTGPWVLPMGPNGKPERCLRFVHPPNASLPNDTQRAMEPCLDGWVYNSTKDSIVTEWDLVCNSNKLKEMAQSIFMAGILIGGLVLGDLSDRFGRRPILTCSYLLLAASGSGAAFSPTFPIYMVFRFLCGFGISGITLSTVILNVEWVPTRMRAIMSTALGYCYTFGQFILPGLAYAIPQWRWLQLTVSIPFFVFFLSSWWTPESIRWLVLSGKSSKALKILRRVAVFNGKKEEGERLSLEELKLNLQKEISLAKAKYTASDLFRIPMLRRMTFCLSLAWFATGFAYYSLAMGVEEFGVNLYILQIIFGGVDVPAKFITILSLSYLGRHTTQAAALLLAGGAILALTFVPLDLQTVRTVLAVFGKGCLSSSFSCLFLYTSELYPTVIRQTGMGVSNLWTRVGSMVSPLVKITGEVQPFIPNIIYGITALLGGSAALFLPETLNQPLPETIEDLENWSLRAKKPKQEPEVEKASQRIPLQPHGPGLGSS
Put plainly: Enalaprilat uptake kinetics in HEK293 cells overexpressing human OAT3. The format is in vitro ADME. To be noted: OAT3-transfected HEK293, net uptake (mock subtracted), enalaprilat 0-500 μM, 5 min incubation. Further details: expressed in transfected cells; gift of Prof; Dafang Zhong, Shanghai Institute of Materia Medica. As for the experimental part: as §1, §2, §3

Another data set concerns the target T3, human OATP2B1 (Homo sapiens, UniProt O94956).
T3 construct: expressed in transfected cells; gift of Prof; Dafang Zhong, Shanghai Institute of Materia Medica
T3 sequence (O94956 1-709): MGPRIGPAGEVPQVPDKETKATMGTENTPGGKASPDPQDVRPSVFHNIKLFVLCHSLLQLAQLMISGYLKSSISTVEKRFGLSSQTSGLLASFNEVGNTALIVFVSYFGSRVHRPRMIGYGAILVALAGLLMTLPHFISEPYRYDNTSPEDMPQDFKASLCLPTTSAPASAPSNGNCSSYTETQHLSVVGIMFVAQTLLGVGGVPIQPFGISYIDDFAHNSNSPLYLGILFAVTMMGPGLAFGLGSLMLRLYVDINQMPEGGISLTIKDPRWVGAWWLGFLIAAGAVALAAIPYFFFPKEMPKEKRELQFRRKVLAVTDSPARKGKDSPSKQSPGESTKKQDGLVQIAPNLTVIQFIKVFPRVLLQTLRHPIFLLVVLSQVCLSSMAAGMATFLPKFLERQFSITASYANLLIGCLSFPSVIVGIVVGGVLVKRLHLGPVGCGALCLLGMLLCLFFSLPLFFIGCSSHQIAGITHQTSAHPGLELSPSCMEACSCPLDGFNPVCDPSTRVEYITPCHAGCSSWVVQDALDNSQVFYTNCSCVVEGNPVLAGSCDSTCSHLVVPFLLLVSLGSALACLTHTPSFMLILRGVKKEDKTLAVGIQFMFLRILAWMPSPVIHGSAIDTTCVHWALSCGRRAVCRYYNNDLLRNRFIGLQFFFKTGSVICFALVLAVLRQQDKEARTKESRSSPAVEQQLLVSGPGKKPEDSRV
In words: Enalaprilat uptake kinetics in HEK293 cells overexpressing human OATP2B1. Format: in vitro ADME. To be noted: OATP2B1-transfected HEK293, net uptake (mock subtracted), enalaprilat 0-500 μM, 5 min incubation. The protocol:
as §1, §2, §3

Take `C[C@H](N[C@@H](CCc1ccccc1)C(=O)O)C(=O)N1CCC[C@H]1C(=O)O` [Enalaprilat]: the “Excreted into the urine, % of the dose” value in data set [1] was 43 % of the dose. Moreover, the figures for the Vmax at human OAT1, on human OAT3 and on human OATP2B1 were 42.4 ± 1.3 nmol/min/mg protein, 87.4 ± 1.1 nmol/min/mg protein and 20.1 ± 2.7 nmol/min/mg protein, respectively.
